Source: ChEMBL document CHEMBL1142237, “Cytotoxic triterpenoid saponins of Albizia gummifera from the Madagascar rain forest” (J Nat Prod, 2007)

Columns and labels:
Assay type in all cases: functional, cell-based
[1] = system: A2780; assay: Antiproliferative activity against human A2780 cells after 96 hrs; details: A2780, 96 h
[2] = system: MDA-MB-435; assay: Antiproliferative activity against human MDA-MB-435 cells after 96 hrs; details: MDA-MB-435, 96 h
[3] = system: HT-29; assay: Antiproliferative activity against human HT29 cells after 96 hrs; details: HT-29, 96 h
[4] = Antiproliferative activity against human H522-T1 cells after 96 hrs; details: H522-T1, 96 h
[5] = system: U-937; assay: Antiproliferative activity against human U937 cells after 96 hrs; details: U-937, 96 h

C=C[C@](C)(CC/C=C(\C)C(=O)O[C@H]1[C@H](O)[C@@H](O)[C@H](O[C@](C)(C=C)CC/C=C(\C)C(=O)O[C@H]2[C@H](O)[C@@H](O)[C@H](O[C@](C)(C=C)CC/C=C(/C)C(=O)O[C@H]3C[C@]4(C(=O)O[C@@H]5O[C@H](CO)[C@@H](O)[C@H](O)[C@H]5O[C@@H]5O[C@@H](C)[C@H](O[C@@H]6OC[C@@H](O)[C@H](O)[C@H]6O)[C@@H](O)[C@H]5O)[C@H](O)C[C@]5(C)C(=CC[C@@H]6[C@@]7(C)CC[C@H](O[C@@H]8O[C@H](CO[C@@H]9O[C@H](C)[C@H](O)[C@H](O)[C@H]9O)[C@@H](O)[C@H](O)[C@H]8O[C@@H]8O[C@H](CO)[C@@H](O)[C@H](O)[C@H]8O)C(C)(C)C7CC[C@]65C)[C@@H]4CC3(C)C)O[C@@H]2C)O[C@@H]1C)O[C@@H]1O[C@H](C)[C@@H](O)[C@H](O)[C@H]1O (stereo not given in full) [GUMMIFERAOSIDE C]
IC50 [1]: 0.26 µM
IC50 [2]: 0.48 µM
IC50 [3]: 0.61 µM
IC50 [4]: 0.64 µM
IC50 [5]: 0.29 µM
